Laboratory results as given in patent US20150299188A1, “HETEROCYCLIC COMPOUND” (priority 2012, published 2015).

Test system: FLAP (5-lipoxygenase activating protein)
Assay: In vitro binding test: displacement of [3H]-7-chloro-3-(5-((3-fluoropyridin-2-yl)methoxy)-2-methylphenyl)-3,4-dihydroquinazolin-2(1H)-one from Sf9 microsome fractions
Parameters: species or system human and mouse
Conditions: Sf9 microsome fractions expressing FLAP; 100% = radioligand binding with 10 μM sodium 3-(3-(tert-butylsulfanyl)-1-(4-chlorobenzyl)-5-isopropyl-1H-indol-2-yl)-2,2-dimethylpropanoate, 0% = DMSO; test compound concentration not given
Method in brief: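 Sf9 microsomes expressing human or mouse FLAP (2 μg/mL) preincubated with compound 10 min at room temperature, then 120 nM tritiated quinazolinone ligand added for 60 min; buffer 100 mM Tris-HCl pH 7.5 with NaCl, EDTA, DTT, glycerol, Tween20. Bound ligand filtered and counted by scintillation; 10 μM indole propanoate defines 100% inhibition, DMSO 0%.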

Going from `Cc1cc2c(cc1N1Cc3c(Cl)cnc(N4CCCC4)c3NC1=O)OC(c1ncccc1F)CC2` (stereo not drawn) [Example 158, 5-chloro-3-(2-(3-fluoropyridin-2-yl)-6-methyl-3,4-dihydro-2H-chromen-7-yl)-8-(pyrrolidin-1-yl)-3,4-dihydropyrido[3,4-d]pyrimidin-2(1H)-one] to `Cc1cc2c(cc1N1Cc3c(Cl)cnc(N(C)C)c3NC1=O)OC(c1ncccc1F)CC2` (stereo not drawn) [Example 165, 5-chloro-8-(dimethylamino)-3-(2-(3-fluoropyridin-2-yl)-6-methyl-3,4-dihydro-2H-chromen-7-yl)-3,4-dihydropyrido[3,4-d]pyrimidin-2(1H)-one], the “inhibitory rate (%)” value rises from 99% to 104%.

Going from `Cc1cc2c(cc1N1Cc3c(cc(OCC(F)F)nc3C3CC3)NC1=O)OC(c1ncccc1F)CC2` (stereo not drawn) [Example 159, 5-cyclopropyl-7-(2,2-difluoroethoxy)-3-(2-(3-fluoropyridin-2-yl)-6-methyl-3,4-dihydro-2H-chromen-7-yl)-3,4-dihydropyrido[4,3-d]pyrimidin-2(1H)-one] to `Cc1cc2c(cc1N1Cc3c(F)cnc(C4CC4)c3NC1=O)OC(c1ncccc1F)CC2` (stereo not drawn) [Example 168, 8-cyclopropyl-5-fluoro-3-(2-(3-fluoropyridin-2-yl)-6-methyl-3,4-dihydro-2H-chromen-7-yl)-3,4-dihydropyrido[3,4-d]pyrimidin-2(1H)-one], the “inhibitory rate (%)” value falls from 97% to 91%.

First: Cc1cc2c(cc1N1Cc3c(Cl)cnc(-c4ccnn4C)c3NC1=O)OC(c1ncccc1F)CC2 (stereo not drawn) [Example 160, 5-chloro-3-(2-(3-fluoropyridin-2-yl)-6-methyl-3,4-dihydro-2H-chromen-7-yl)-8-(1-methyl-1H-pyrazol-5-yl)-3,4-dihydropyrido[3,4-d]pyrimidin-2(1H)-one]
Second: Cc1cc2c(cc1N1Cc3c(Cl)cnc(-c4ccoc4)c3NC1=O)OC(c1ncccc1F)CC2 (stereo not drawn) [Example 164, 5-chloro-3-(2-(3-fluoropyridin-2-yl)-6-methyl-3,4-dihydro-2H-chromen-7-yl)-8-(3-furyl)-3,4-dihydropyrido[3,4-d]pyrimidin-2(1H)-one]
The “inhibitory rate (%)” value of the first is lower: 93% for the first, 102% for the second.

Compared with `CCOc1ncc(Cl)c2c1NC(=O)N(c1cc3c(cc1C)CCC(c1ncccc1F)O3)C2` (stereo not drawn) [Example 161, 5-chloro-8-ethoxy-3-(2-(3-fluoropyridin-2-yl)-6-methyl-3,4-dihydro-2H-chromen-7-yl)-3,4-dihydropyrido[3,4-d]pyrimidin-2(1H)-one], `O=C1Nc2c(C3CC3)ncc(F)c2CN1c1cc2c(cc1Cl)CCC(c1ncccc1F)O2` (stereo not drawn) [Example 166, 3-(6-chloro-2-(3-fluoropyridin-2-yl)-3,4-dihydro-2H-chromen-7-yl)-8-cyclopropyl-5-fluoro-3,4-dihydropyrido[3,4-d]pyrimidin-2(1H)-one] is higher in “inhibitory rate (%)” value: 90% for the first, 106% for the second.

Compared with `Cc1cc2c(cc1N1Cc3c(C4CC4)cnc(-c4cnn(C)c4)c3NC1=O)OC(c1ncccc1F)CC2` (stereo not drawn) [Example 162, 5-cyclopropyl-3-(2-(3-fluoropyridin-2-yl)-6-methyl-3,4-dihydro-2H-chromen-7-yl)-8-(1-methyl-1H-pyrazol-4-yl)-3,4-dihydropyrido[3,4-d]pyrimidin-2(1H)-one], `Cn1cc(-c2ncc(C3CC3)c3c2NC(=O)N(c2cc4c(cc2Cl)CCC(c2ncccc2F)O4)C3)cn1` (stereo not drawn) [Example 163, 3-(6-chloro-2-(3-fluoropyridin-2-yl)-3,4-dihydro-2H-chromen-7-yl)-5-cyclopropyl-8-(1-methyl-1H-pyrazol-4-yl)-3,4-dihydropyrido[3,4-d]pyrimidin-2(1H)-one] is higher in “inhibitory rate (%)” value: 95% for the first, 98% for the second.

First: Cc1cc2c(cc1N1Cc3c(F)cnc(-c4cnn(C)c4)c3NC1=O)OC(c1ncccc1F)CC2 (stereo not drawn) [Example 167, 5-fluoro-3-(2-(3-fluoropyridin-2-yl)-6-methyl-3,4-dihydro-2H-chromen-7-yl)-8-(1-methyl-1H-pyrazol-4-yl)-3,4-dihydropyrido[3,4-d]pyrimidin-2(1H)-one]
Second: Cn1cc(-c2ncc(F)c3c2NC(=O)N(c2cc4c(cc2Cl)CCC(c2ncccc2F)O4)C3)cn1 (stereo not drawn) [Example 169, 3-(6-chloro-2-(3-fluoropyridin-2-yl)-3,4-dihydro-2H-chromen-7-yl)-5-fluoro-8-(1-methyl-1H-pyrazol-4-yl)-3,4-dihydropyrido[3,4-d]pyrimidin-2(1H)-one]
The “inhibitory rate (%)” value of the first is higher: 95% for the first, 92% for the second.

First: Cc1ccc(OCc2c(F)cccc2F)cc1N1Cc2ccccc2NC1=O [Example 170, 3-(5-((2,6-difluorobenzyl)oxy)-2-methylphenyl)-3,4-dihydroquinazolin-2(1H)-one]
Second: COC(=O)c1ccc(OCc2c(F)cccc2F)cc1N1Cc2ccccc2NC1=O [Example 188, methyl 4-((2,6-difluorobenzyl)oxy)-2-(2-oxo-1,4-dihydroquinazolin-3(2H)-yl)benzoate]
The “inhibitory rate (%)” value of the first is higher: 91% for the first, 83% for the second.

First: COC(=O)c1ccc2c(c1)NC(=O)N(c1cc(OCc3c(F)cccc3F)ccc1C)C2 [Example 171, methyl 3-(5-((2,6-difluorobenzyl)oxy)-2-methylphenyl)-2-oxo-1,2,3,4-tetrahydroquinazoline-7-carboxylate]
Second: CCc1ccc(OCc2c(F)cccc2F)cc1N1Cc2ccc(C(=O)OC)cc2NC1=O [Example 177, methyl 3-(5-((2,6-difluorobenzyl)oxy)-2-ethylphenyl)-2-oxo-1,2,3,4-tetrahydroquinazoline-7-carboxylate]
The “inhibitory rate (%)” value of the first is higher: 99% for the first, 84% for the second.

Going from `Cc1ccc(OCc2ccccc2F)cc1N1Cc2ccccc2NC1=O` [Example 172, 3-(5-((2-fluorobenzyl)oxy)-2-methylphenyl)-3,4-dihydroquinazolin-2(1H)-one] to `Cc1ccc(OCc2ccccc2Cl)cc1N1Cc2ccccc2NC1=O` [Example 173, 3-(5-((2-chlorobenzyl)oxy)-2-methylphenyl)-3,4-dihydroquinazolin-2(1H)-one], the “inhibitory rate (%)” value falls from 80% to 70%.

Compared with `Cc1ccc(OCc2c(F)cc(Cl)cc2F)cc1N1Cc2ccccc2NC1=O` [Example 174, 3-(5-((4-chloro-2,6-difluorobenzyl)oxy)-2-methylphenyl)-3,4-dihydroquinazolin-2(1H)-one], `Cc1ccc(OCc2c(F)cccc2F)cc1N1Cc2ccc(CO)cc2NC1=O` [Example 181, 3-(5-((2,6-difluorobenzyl)oxy)-2-methylphenyl)-7-(hydroxymethyl)-3,4-dihydroquinazolin-2(1H)-one] is higher in “inhibitory rate (%)” value: 54% for the first, 91% for the second.

Compared with `Cc1ccc(OCc2cccs2)cc1N1Cc2ccccc2NC1=O` [Example 175, 3-(2-methyl-5-(2-thienylmethoxyl)phenyl)-3,4-dihydroquinazolin-2(1H)-one], `Cc1ccc(OCc2ncccc2Cl)cc1N1Cc2ccccc2NC1=O` [Example 187, 3-(5-((3-chloropyridin-2-yl)methoxy)-2-methylphenyl)-3,4-dihydroquinazolin-2(1H)-one] is higher in “inhibitory rate (%)” value: 51% for the first, 103% for the second.

Going from `COC(=O)c1ccc2c(c1)NC(=O)N(c1cc(OCc3c(F)cccc3F)ccc1C(=O)OC)C2` [Example 176, methyl 3-(5-((2,6-difluorobenzyl)oxy)-2-(methoxycarbonyl)phenyl)-2-oxo-1,2,3,4-tetrahydroquinazoline-7-carboxylate] to `CCc1ccc(OCc2c(F)cccc2F)cc1N1Cc2ccc(CO)cc2NC1=O` [Example 179, 3-(5-((2,6-difluorobenzyl)oxy)-2-ethylphenyl)-7-(hydroxymethyl)-3,4-dihydroquinazolin-2(1H)-one], the “inhibitory rate (%)” value falls from 95% to 91%.

First: CCc1ccc(OCc2c(F)cccc2F)cc1N1Cc2ccc(C(C)(C)O)cc2NC1=O [Example 178, 3-(5-((2,6-difluorobenzyl)oxy)-2-ethylphenyl)-7-(2-hydroxypropan-2-yl)-3,4-dihydroquinazolin-2(1H)-one]
Second: Cc1ccc(OCc2c(F)cccc2F)cc1N1Cc2ccc(C(C)(C)O)cc2NC1=O [Example 180, 3-(5-((2,6-difluorobenzyl)oxy)-2-methylphenyl)-7-(2-hydroxypropan-2-yl)-3,4-dihydroquinazolin-2(1H)-one]
The “inhibitory rate (%)” value of the first is higher: 109% for the first, 81% for the second.

Compared with `Cc1cc2c(cc1N1Cc3ccc(C(=O)N4CCOCC4)cc3NC1=O)OC(c1ncccc1F)CC2` (stereo not drawn) [Example 183, 3-(2-(3-fluoropyridin-2-yl)-6-methyl-3,4-dihydro-2H-chromen-7-yl)-7-(morpholin-4-ylcarbonyl)-3,4-dihydroquinazolin-2(1H)-one], `Cc1cc2c(cc1N1Cc3ccc(C(=O)NC4CC4)cc3NC1=O)OC(c1ncccc1F)CC2` (stereo not drawn) [Example 184, N-cyclopropyl-3-(2-(3-fluoropyridin-2-yl)-6-methyl-3,4-dihydro-2H-chromen-7-yl)-2-oxo-1,2,3,4-tetrahydroquinazoline-7-carboxamide] is higher in “inhibitory rate (%)” value: 96% for the first, 97% for the second.

Compared with `Cc1cc2c(cc1N1Cc3ccc(CO)cc3NC1=O)OC(c1ncccc1F)CC2` (stereo not drawn) [Example 185, 3-(2-(3-fluoropyridin-2-yl)-6-methyl-3,4-dihydro-2H-chromen-7-yl)-7-(hydroxymethyl)-3,4-dihydroquinazolin-2(1H)-one], `Cc1ccc(OCc2c(F)cccc2F)cc1N1Cc2cc(CO)ccc2NC1=O` [Example 186, 3-(5-((2,6-difluorobenzyl)oxy)-2-methylphenyl)-6-(hydroxymethyl)-3,4-dihydroquinazolin-2(1H)-one] is lower in “inhibitory rate (%)” value: 98% for the first, 62% for the second.
